Data as given in patent publication US10364256B2 (GlaxoSmithKline Intellectual Property Development Limited, priority 2015, dated 2019).

Experiments:
[1] = biological target: T1, Keap1 Kelch domain (321-609) / TAMRA-labeled 16mer NRF2 peptide (ETGE motif) (Homo sapiens, UniProt Q14145); assay: NRF2-Keap1 FP Assay (Keap1 Kelch fluorescence polarization); type: binding; conditions: 20 nM Keap1 (321-609), 8 nM Tamra labeled peptide
T1 construct: the Kelch domain (321-609) of Keap1 is used
Outline: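 Compound dilutions (3-fold) were incubated 1 hr at room temperature with 20 nM Keap1 Kelch (321-609) and 8 nM TAMRA-labeled ETGE 16mer peptide. Buffer was 50 mM Tris pH 8.0, 100 mM NaCl, 5 mM MgCl2, 1 mM DTT, 2 mM CHAPS, 0.005% BSA. Fluorescence polarization (mP) was normalized to controls and fitted with a four-parameter equation to give pIC50.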

[2] = biological target: T2, full length Keap1 protein / full length NRF2 protein (Homo sapiens, UniProt Q14145); assay: NRF2-Keap1 TR-FRET Assay; type: binding; conditions: 25 nM Keap1-FlagHis and 50 nM biotin-NRF2 added
T2 construct: full length NRF2 protein and full length Keap1 protein (Keap1 exists a dimer) are used; His
Outline: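 Displacement of biotinylated full-length NRF2 from full-length Keap1 read by Eu/APC TR-FRET (665/615 nm) after 1 h detection at RT. Compound, 3-fold series, first incubated with Keap1 at 37 °C for 2.25 h, NRF2 then added at 4 °C for 1.25 h; pIC50 by four-parameter equation.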

T1 sequence (Q14145 321-609): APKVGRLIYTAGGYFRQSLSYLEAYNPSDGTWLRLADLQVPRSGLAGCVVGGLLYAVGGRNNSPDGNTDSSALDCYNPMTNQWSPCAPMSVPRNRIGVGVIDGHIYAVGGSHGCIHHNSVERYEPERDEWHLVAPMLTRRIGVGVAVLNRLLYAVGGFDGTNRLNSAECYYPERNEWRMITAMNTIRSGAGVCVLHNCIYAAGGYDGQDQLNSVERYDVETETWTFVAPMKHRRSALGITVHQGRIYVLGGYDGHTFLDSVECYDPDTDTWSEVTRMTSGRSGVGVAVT
T2 sequence (Q14145 whole entry): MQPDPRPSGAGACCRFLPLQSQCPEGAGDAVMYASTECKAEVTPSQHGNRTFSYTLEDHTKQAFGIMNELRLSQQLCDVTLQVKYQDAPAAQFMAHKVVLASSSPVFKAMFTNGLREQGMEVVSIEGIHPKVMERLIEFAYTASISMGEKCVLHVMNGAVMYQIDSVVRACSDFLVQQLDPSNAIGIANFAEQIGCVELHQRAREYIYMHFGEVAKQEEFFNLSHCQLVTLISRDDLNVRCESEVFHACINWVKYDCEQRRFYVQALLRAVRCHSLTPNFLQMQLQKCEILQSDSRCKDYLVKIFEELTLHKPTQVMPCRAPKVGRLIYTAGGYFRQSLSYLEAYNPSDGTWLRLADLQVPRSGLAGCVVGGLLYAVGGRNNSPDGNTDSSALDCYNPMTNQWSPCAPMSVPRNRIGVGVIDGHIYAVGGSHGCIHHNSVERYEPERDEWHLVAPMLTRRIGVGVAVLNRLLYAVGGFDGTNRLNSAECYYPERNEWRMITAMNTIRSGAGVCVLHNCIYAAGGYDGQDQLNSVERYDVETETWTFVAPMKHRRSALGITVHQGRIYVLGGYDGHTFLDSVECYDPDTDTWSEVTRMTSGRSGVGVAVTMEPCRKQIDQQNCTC

IC50 [1] [nM] | IC50 [2] [nM] | SMILES
10 to 100 | 100 to 1000 | Cn1cc([C@@H]2C[C@H]2c2c(C(=O)O)cnn2-c2cccc(-c3cccc(OCCC4CCCCC4)c3)c2)nn1 (racemic) [Example 245, 1-(3′-(2-cyclohexylethoxy)-[1,1′-biphenyl]-3-yl)-5-(trans-2-(1-methyl-1H-1,2,3-triazol-4-yl)cyclopropyl)-1H-pyrazole-4-carboxylic Acid]
100 to 1000 | 1000 to 10000 | Cn1cc([C@@H]2C[C@H]2c2c(C(=O)O)cnn2-c2cccc(-c3cncc(OCC4CCCCC4)c3)c2)nn1 (racemic) [Example 246, 1-(3-(5-(Cyclohexylmethoxy)pyridin-3-yl)phenyl)-5-(trans-2-(1-methyl-1H-1,2,3-triazol-4-yl)cyclopropyl)-1H-pyrazole-4-carboxylic Acid]
10 to 100 | 10 to 100 | CCC[C@@H]1CCCCN1C(=O)c1cccc(-c2cc(C)cc(-n3ncc(C(=O)O)c3[C@@H]3C[C@H]3c3cn(C)nn3)c2)c1 (single isomer, unassigned) [Example 155]
100 to 1000 | 100 to 1000 | CC(Oc1cccc(-c2cccc(-n3ncc(C(=O)O)c3[C@H]3C[C@@H]3c3cn(C)nn3)c2)c1)C1CCCCC1 (single isomer, unassigned) [Example 191]
10 to 100 | 10 to 100 | Cn1cc([C@H]2C[C@@H]2c2c(C(=O)O)cnn2-c2cccc(-c3cccc(-n4ncc5c4C(C)(C)CC5)c3)c2)nn1 (stereo in doubt) [Example 208, 1-(3′-(6,6-Dimethyl-5,6-dihydrocyclopenta[c]pyrazol-1(4H)-yl)-[1,1′-biphenyl]-3-yl)-5-((1S,2S)-2-(1-methyl-1H-1,2,3-triazol-4-yl)cyclopropyl)-1H-pyrazole-4-carboxylic Acid]
10 to 100 | 100 to 1000 | O=C(O)c1cnn(-c2cccc(-c3cccc(C(=O)N(CC4CCCC4)CC4CC4)c3F)c2)c1C1CC1 [Example 14, 1-(3-{3-[(Cyclopentylmethyl)(cyclopropylmethyl)carbamoyl]-2-fluorophenyl}phenyl)-5-cyclopropyl-1H-pyrazole-4-carboxylic Acid]
10 to 100 | 100 to 1000 | CCCC1CCCCN1C(=O)c1cccc(-c2cccc(-n3ncc(C(=O)O)c3C3CC3)c2)c1F (centres unmarked) [Example 17, 5-Cyclopropyl-1-{3-[2-fluoro-3-(2-propylpiperidine-1-carbonyl)phenyl]phenyl}-1H-pyrazole-4-carboxylic Acid]
10 to 100 | 100 to 1000 | C[C@@H]1CCC[C@H](C)N1C(=O)c1cccc(-c2cccc(-n3ncc(C(=O)O)c3C3CC3)c2)c1F [Example 21, 5-Cyclopropyl-1-(3-{3-[(2R,6S)-2,6-dimethylpiperidine-1-carbonyl]-2-fluorophenyl}phenyl)-1H-pyrazole-4-carboxylic Acid]
10 to 100 | 10 to 100 | CCCC1CCCCN1C(=O)c1cccc(-c2cccc(-n3ncc(C(=O)O)c3C3CC3c3cccnn3)c2)c1 (centres unmarked) [Example 41, 1-[3′-(2-Propyl-piperidine-1-carbonyl)-biphenyl-3-yl]-5-(2-pyridazin-3-yl-cyclopropyl)-1H-pyrazole-4-carboxylic Acid]
10 to 100 | 10 to 100 | CCCC1CCCCN1C(=O)c1cccc(-c2cccc(-n3ncc(C(=O)O)c3C3CC3c3cn(C)nn3)c2)c1 (centres unmarked) [Example 42, 5-[2-(1-methyl-1H-1,2,3-triazol-4-yl)cyclopropyl]-1-{3-[3-(2-propylpiperidine-1-carbonyl)phenyl]phenyl}-1H-pyrazole-4-carboxylic Acid]
100 to 1000 | 1000 to 10000 | CCC[C@@H]1CCCCN1C(=O)c1cccc(-c2cccc(-n3ncc(C(=O)O)c3[C@H]3C[C@@H]3c3cn(C)nn3)c2)c1 [Example 51g, 5-[(1S,2S)-2-(1-methyl-1H-1,2,3-triazol-4-yl)cyclopropyl]-1-(3-{3-[(2R)-2-propylpiperidine-1-carbonyl]phenyl}phenyl)-1H-pyrazole-4-carboxylic Acid]
10 to 100 | 10 to 100 | CCC[C@@H]1CCCCN1C(=O)c1cccc(-c2cccc(-n3ncc(C(=O)O)c3[C@@H]3C[C@H]3c3cn(C)nn3)c2)c1 [Example 51h, 5-[(1R,2R)-2-(1-methyl-1H-1,2,3-triazol-4-yl)cyclopropyl]-1-(3-{3-[(2R)-2-propylpiperidine-1-carbonyl]phenyl}phenyl)-1H-pyrazole-4-carboxylic Acid]
10 to 100 | 10 to 100 | CCC[C@@H]1CCCCN1C(=O)c1cccc(-c2cccc(-n3ncc(C(=O)O)c3C3CC3c3cn(C)nn3)c2)c1F (stereo partly drawn) [Example 57, 1-(2′-Fluoro-3′-((R)-2-propylpiperidine-1-carbonyl)-[1,1′-biphenyl]-3-yl)-5-(2-(1-methyl-1H-1,2,3-triazol-4-yl)cyclopropyl)-1H-pyrazole-4-carboxylic Acid]
100 to 1000 | 1000 to 10000 | O=C(O)c1cnn(-c2cccc(-c3cccc(-n4ncc5c4CCC5)c3)c2)c1C1CC1 [Example 61, 5-Cyclopropyl-1-(3′-(5,6-dihydrocyclopenta[c]pyrazol-1(4H)-yl)-[1,1′-biphenyl]-3-yl)-1H-pyrazole-4-carboxylic Acid]
100 to 1000 | 1000 to 10000 | O=C(O)c1cnn(-c2cccc(-c3cccc(-n4ncc5c4CCCC5)c3)c2)c1C1CC1 [Example 62, 5-cyclopropyl-1-(3′-(4,5,6,7-tetrahydro-1H-indazol-1-yl)-[1,1′-biphenyl]-3-yl)-1H-pyrazole-4-carboxylic Acid]
10 to 100 | 100 to 1000 | CCC[C@@H]1CCCCN1C(=O)c1cccc(-c2cccc(-n3ncc(C(=O)O)c3C3CC3(F)F)c2)c1 (stereo partly drawn) [Example 67, 5-(2,2-Difluorocyclopropyl)-1-(3′-((R)-2-propylpiperidine-1-carbonyl)-[1,1′-biphenyl]-3-yl)-1H-pyrazole-4-carboxylic Acid]
10 to 100 | 10 to 100 | CC[C@@H]1CN(Cc2cccc(-c3cccc(-n4ncc(C(=O)O)c4C4CC4c4cn(C)nn4)c3)c2)Cc2ccccc2O1 (stereo partly drawn) [Example 129, 1-(3′-(((R)-2-ethyl-2,3-dihydrobenzo[f][1,4]oxazepin-4(5H)-yl)methyl)-[1,1′-biphenyl]-3-yl)-5-(2-(1-methyl-1H-1,2,3-triazol-4-yl)cyclopropyl)-1H-pyrazole-4-carboxylic Acid]
10 to 100 | 10 to 100 | CCC[C@@H]1CCCCN1C(=O)c1cccc(-c2cc(C)cc(-n3ncc(C(=O)O)c3C3CC3c3cn(C)nn3)c2)c1 (stereo partly drawn) [Example 154, 5-(2-(1-Methyl-1H-1,2,3-triazol-4-yl)cyclopropyl)-1-(5-methyl-3′-((R)-2-propylpiperidine-1-carbonyl)-[1,1′-biphenyl]-3-yl)-1H-pyrazole-4-carboxylic Acid]
10 to 100 | 10 to 100 | CCC[C@@H]1CCCCN1C(=O)c1cccc(-c2cc(Cl)cc(-n3ncc(C(=O)O)c3C3CC3c3cn(C)nn3)c2)c1 (stereo partly drawn) [Example 160, 1-(5-Chloro-3′-((R)-2-propylpiperidine-1-carbonyl)-[1,1′-biphenyl]-3-yl)-5-(2-(1-methyl-1H-1,2,3-triazol-4-yl)cyclopropyl)-1H-pyrazole-4-carboxylic Acid Compound with 2,2,2-trifluoroacetic Acid (1:1)]
1000 to 10000 | 10000 to 100000 | CC(CC1CCCCC1)Oc1cccc(-c2cccc(-n3ncc(C(=O)O)c3C3CC3)c2)c1 (centres unmarked) [Example 161, 1-(3′-((1-Cyclohexylpropan-2-yl)oxy)-[1,1′-biphenyl]-3-yl)-5-cyclopropyl-1H-pyrazole-4-carboxylic Acid]
100 to 1000 | 1000 to 10000 | CC(Oc1cccc(-c2cccc(-n3ncc(C(=O)O)c3[C@@H]3C[C@H]3c3cn(C)nn3)c2)c1)C1CCCCC1 (stereo partly drawn) [Example 163, 1-(3′-(1-Cyclohexylethoxy)-[1,1′-biphenyl]-3-yl)-5-((1R,2R)-2-(1-methyl-1H-1,2,3-triazol-4-yl)cyclopropyl)-1H-pyrazole-4-carboxylic acid]
10 to 100 | 100 to 1000 | Cn1cc(C2CC2c2c(C(=O)O)cnn2-c2cccc(-c3cccc(OCC4CCCCC4)c3)c2)nn1 (centres unmarked) [Example 164, 1-(3′-(Cyclohexylmethoxy)-[1,1′-biphenyl]-3-yl)-5-(2-(1-methyl-1H-1,2,3-triazol-4-yl)cyclopropyl)-1H-pyrazole-4-carboxylic acid]
10 to 100 | 10 to 100 | CC(Oc1cccc(-c2cccc(-n3ncc(C(=O)O)c3[C@H]3C[C@@H]3c3cn(C)nn3)c2)c1)C1CCCCC1 (stereo partly drawn) [Example 165, 1-(3′-(1-Cyclohexylethoxy)-[1,1′-biphenyl]-3-yl)-5-((1S,2S)-2-(1-methyl-1H-1,2,3-triazol-4-yl)cyclopropyl)-1H-pyrazole-4-carboxylic acid]
10 to 100 | 100 to 1000 | Cn1cc([C@@H]2C[C@H]2c2c(C(=O)O)cnn2-c2cccc(-c3cccc(OCC4CCCCC4)c3)c2)nn1 [Example 171, 1-(3′-(Cyclohexylmethoxy)-[1,1′-biphenyl]-3-yl)-5-((1R,2R)-2-(1-methyl-1H-1,2,3-triazol-4-yl)cyclopropyl)-1H-pyrazole-4-carboxylic acid]

SMILES | IC50 [1] [nM] | IC50 [2] [nM]
Cn1cc(C2CC2c2c(C(=O)O)cnn2-c2cccc(-c3cccc(OCC4CCN(C(=O)OC(C)(C)C)CC4)c3)c2)nn1 (centres unmarked) [Example 167, 1-(3′-((1-(tert-Butoxycarbonyl)piperidin-4-yl)methoxy)-[1,1′-biphenyl]-3-yl)-5-(2-(1-methyl-1H-1,2,3-triazol-4-yl)cyclopropyl)-1H-pyrazole-4-carboxylic acid] | 10 to 100 | 100 to 1000
